Measured values published in US6057441A, “Substituted tetracyclic tetrahydrofuran derivatives” (Janssen Pharmaceutica, N.V., priority 1996, dated 2000).
Structures can show the parent of a compound that is named as a salt.

Legend:
5-HT2A receptor = target: T1, 5-HT2A receptor (Rattus norvegicus, UniProt P14842); test: In vitro radioligand binding affinity for 5-HT2A receptor (3H-ketanserin, frontal cortex); conditions: test concentration of 10^-7 M, frontal cortex of the rat
T1 construct: the tissue used is the frontal cortex of the rat; from tissue; host or cells: rat frontal cortex
T1 sequence (P14842 whole entry): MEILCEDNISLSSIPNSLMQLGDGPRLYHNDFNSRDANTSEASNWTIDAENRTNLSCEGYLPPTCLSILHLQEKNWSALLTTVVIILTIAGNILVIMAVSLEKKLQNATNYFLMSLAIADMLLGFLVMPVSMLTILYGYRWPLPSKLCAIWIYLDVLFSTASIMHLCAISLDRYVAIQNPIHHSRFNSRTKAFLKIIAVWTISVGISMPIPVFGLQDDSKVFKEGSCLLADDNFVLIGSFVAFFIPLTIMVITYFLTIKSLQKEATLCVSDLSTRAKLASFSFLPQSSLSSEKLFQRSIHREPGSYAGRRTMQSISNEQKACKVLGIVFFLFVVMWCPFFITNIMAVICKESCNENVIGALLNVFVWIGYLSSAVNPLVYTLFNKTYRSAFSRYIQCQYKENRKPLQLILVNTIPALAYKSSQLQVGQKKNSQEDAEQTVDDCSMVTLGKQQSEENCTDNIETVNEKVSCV
Protocol: (§1) The interaction of the compounds of formula (I) with 5-HT2A and 5-HT2C receptors was assessed in in vitro radioligand binding experiments. In general, a low concentration of a radioligand with a high binding affinity for the receptor is incubated with a sample of a tissue preparation enriched in a particular receptor (1 to 5 mg tissue) in a buffered medium (0.2 to 5 ml). During the incubation, the radioligands bind to the receptor. When equilibrium of binding is reached, the receptor bound radioactivity is separated from the non-bound radioactivity, and the receptor bound activity is counted. The interaction of the test compounds with the receptors is assessed in competition binding experiments. Various concentrations of the test compound are added to the incubating mixture containing the tissue preparation and the radioligand. Binding of the radioligand will be inhibited by the test compound in proportion to its binding affinity and its concentration. The radioligand used for 5-HT2A binding affinity is ^3 H-ketanserin and the tissue used is the frontal cortex of the rat. […] The radioligand used for 5-HT2C binding affinity is ^3 H-mesulergine and the tissue used is the choroid plexus of the pig.

[1] = tested on: mCPP (metachlorophenylpiperazine) induced effects; test: mCPP Test on Rats; type: in vivo, rat; conditions: pre-test time T of 1 hour, 1 mg/kg mCPP intravenously 15 minutes prior to the test, Open Field Test; for ED40: Rattus norvegicus, iv, read-out: active dose (dose at which 40% of the tested rats showed suppression of the mCPP induced effects, i.e. mCPP-antagonism)
Protocol: Rats were treated with the test compound at a dose varying between 0.0025 mg/kg and 40 mg/kg body weight at a pre-test time T of 1 hour, and with 1 mg/kg mCPP (metachlorophenylpiperazine), injected intravenously, 15 minutes prior to the test. After pre-test time T elapsed, treated rats were submitted to the "Open Field Test on Rats" as described in Drug. Dev. Res. 18, 119-144 (1989), but using an infra-red light source instead of a Kleverlux® (12 V/20 W) light source. […] Compounds number 1, 2, 4 and 9 were active at a test dose of 2.5 mg/kg or less.

5-HT2C receptor = target: T2, 5-HT2C receptor (Sus scrofa, UniProt K7GSR7); test: In vitro radioligand binding affinity for 5-HT2C receptor (3H-mesulergine, choroid plexus); conditions: test concentration of 10^-7 M, choroid plexus of the pig
T2 construct: the tissue used is the choroid plexus of the pig; from tissue; host or cells: pig choroid plexus
T2 sequence (K7GSR7 1-457): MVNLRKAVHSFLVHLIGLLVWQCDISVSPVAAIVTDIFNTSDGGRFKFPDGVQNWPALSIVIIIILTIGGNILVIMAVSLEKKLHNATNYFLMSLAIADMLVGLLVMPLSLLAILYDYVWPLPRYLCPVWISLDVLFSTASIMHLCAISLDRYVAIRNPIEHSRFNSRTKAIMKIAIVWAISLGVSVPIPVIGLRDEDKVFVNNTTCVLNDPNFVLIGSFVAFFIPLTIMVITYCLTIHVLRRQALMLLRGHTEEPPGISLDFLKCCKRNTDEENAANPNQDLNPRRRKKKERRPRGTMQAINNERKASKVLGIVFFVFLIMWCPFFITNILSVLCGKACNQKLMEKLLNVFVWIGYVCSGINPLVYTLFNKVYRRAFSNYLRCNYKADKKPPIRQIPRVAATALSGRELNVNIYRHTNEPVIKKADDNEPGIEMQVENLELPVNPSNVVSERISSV
Protocol: as §1

[2] = dose of 300 mg/kg; cited from earlier work

Structure (SMILES)	inhibition at 0.1 µM (5-HT2A receptor) [%]	ED40 [1] [mg/kg]	inhibition at 0.1 µM (5-HT2C receptor) [%]	also measured
c1ccc2c(c1)Cc1ccccc1C1OC(CN3CCOCC3)CC21 (stereo not shown) [Compound 9]	> 40	≤ 2.5	> 40	–
O=C(c1ccc(F)cc1)C1CCN(CC2CC3c4ccccc4Cc4ccccc4C3O2)CC1 (stereo not shown) [Compound 8]	> 40	–	> 40	–
CN(C)CC1CC2c3ccccc3Oc3ccccc3C2O1 (stereo not shown) [Compound 2]	–	–	–	active dose (dose at which 40% of the tested rats showed suppression of the mCPP induced effects, i.e. mCPP-antagonism) [1]: ≤ 2.5 mg/kg; inhibition of the 5-HT2C receptor (5-HT2C receptor): less than 40%
c1ccc(C2CCN(CC3CC4c5ccccc5Cc5ccccc5C4O3)CC2)cc1 (stereo not shown) [Compound 7]	–	–	> 40	–
OCCN1CCN(CC2CC3c4ccccc4Cc4ccccc4C3O2)CC1 (racemic) [Compound 3, (±)-4-[(3,3a,8,12b-tetrahydro-2H-dibenzo[3,4:6,7]cyclohepta[1,2-b]furan-2-yl)methyl]-1-piperazineethanol dihydrochloride]	> 40	–	> 40	–
CN(C)CC1CC2c3ccccc3Oc3ccccc3C2O1 (racemic) [Compound 1, (±)-2,3,3a,12b-tetrahydro-N,N-dimethyldibenzo[bf]furo[2,3-d]oxepin-2-methanamine]	–	≤ 2.5	> 40	–
CN1CCN(CC2CC3c4ccccc4Cc4ccccc4C3O2)CC1 (stereo not shown) [Compound 5]	> 40	–	> 40	–
Clc1cccc(N2CCN(CC3CC4c5ccccc5Cc5ccccc5C4O3)CC2)c1 (stereo not shown) [Compound 6]	–	–	> 40	–
CN(C)CC1CC2c3ccccc3Cc3ccccc3C2O1.Cl (racemic) [Compound 4, (±)-3,3a,8,12b-tetrahydro-N,N-dimethyl-2H-dibenzo[3,4:6,7]cyclohepta[1,2-b]furan-2-methanamine hydrochloride (1:1)]	> 40	≤ 2.5	> 40	–
CNCC1CC2c3ccccc3Cc3ccccc3C2O1.O=C(O)C(=O)O (racemic) [(±)-3,3a,8,12b-tetrahydro-N-methyl-2H-dibenzo[3,4:6,7]-cyclohepta[1,2-b]furan-2-methanamine oxalic acid]	–	–	–	antidepressant activity [2]: inactive
